Where “and” joins values, the source holds several entries; their conditions need not be identical. Equal entries are not always repeated.
flash point [°C] | SMILES
66 | Clc1ccccn1 [2-chloropyridine]
-12 | C1=CCCCC1 [cyclohexene]

remark: another data set of the same source

flash point [°C] | SMILES
-17 | C1=CCCCC1 [cyclohexene]

remark: another data set of the same source

flash point [°C] | SMILES
-18.00 | C[Si](C)(C)Cl [Trimethylchlorosilane]
40.00 | C[Si](C)(C)c1ccccc1 [Trimethylphenylsilane]
0.00 | C[Si](C)(C)OC(=O)C(F)(F)F [Trimethylsilyltrifluoroacetate]
143.20 | c1ccc([SiH](c2ccccc2)c2ccccc2)cc1 [Triphenylsilane]
55.00 | C[Si](C)(C)[SiH]([Si](C)(C)C)[Si](C)(C)C [Tris(trimethylsilyl)silane]
0.00 | [SiH3][SiH2][SiH3] [Trisilane]
4.00 | C=C[Si](C)(C)OCC [Vinyldimethylethoxysilane]
21.00 | C=C[Si](Cl)(Cl)Cl [Vinyltrichlorosilane]
23.00 | C=C[Si](OC)(OC)OC [Vinyltrimethoxysilane]
30.00 | CCCC[Si](C)(Cl)Cl [n-Butylmethyldichlorosilane]
143.00 | CCCCCCCCCCCC[Si](C)(Cl)Cl [n-Dodecylmethyldichlorosilane]
66.00 | CCCCCCC[Si](C)(Cl)Cl [n-Heptylmethyldichlorosilane]
64.00 | CCCCCCC[Si](Cl)(Cl)Cl [n-Heptyltrichlorosilane]
85.00 | CCCCCC[Si](C)(Cl)Cl [n-Hexylmethyldichlorosilane]
85.00 | CCCCCC[Si](Cl)(Cl)Cl [n-Hexyltrichlorosilane]
193.00 | CCCCCCCCCCCCCCCCCC[Si](Cl)(Cl)Cl [n-Octadecyltrichlorosilane]
36.00 | CCCCCCCC[SiH3] [n-Octylsilane]
37.00 | CCC[Si](Cl)(Cl)Cl [n-Propyltrichlorosilane]
-22.00 | C[SiH](C)C(C)(C)C [t-Butyld imethyl silane]

SMILES | flash point [°C]
C=C(C)O[Si](C)(C)C [Trimethyl[(1-methylethenyl)oxy]silane] | -1.00

remark: another data set of the same source

flash point | SMILES
113.00 °C | COCCOCCOCCOC [1,2-bis(2-methoxyethoxy)ethane]
18.33 °C | C1COCCO1 [1,4-dioxane]
76.00 °C | CC(=O)c1ccccn1 [1-(2-pyridyl)ethanone]
15.00 °C | COCCCl [1-chloro-2-methoxyethane]
46.00 °C | CC(C)CCOCCC(C)C [1-isopentyloxy-3-methylbutane]
33.00 °C | COCC(C)O (configuration not stated) [1-methoxypropan-2-ol]
240.00 °C | OCC(CO)(CO)CO [2,2-bis(hydroxymethyl)propane-1,3-diol]
107.00 °C | CCC(CC)(CO)CO [2,2-diethylpropane-1,3-diol]
60.00 °C | CC(C)C(C)C(C)CO (configuration not stated) [2,3,4-trimethylpentan-1-ol]
72.00 °C | CC(C)(C)c1cccc(C(C)(C)C)n1 [2,6-ditert-butylpyridine]
160.00 °C | CC(CO)(CO)CO [2-(hydroxymethyl)-2-methylpropane-1,3-diol]
113.00 °C | CCCCC(CC)(CO)CO [2-butyl-2-ethylpropane-1,3-diol]
64.00 °C | Clc1ccccn1 [2-chloropyridine]
58.33 °C | CCC(CC)CO [2-ethylbutan-1-ol]
54.00 °C | CCCCC(C)(O)CC (configuration not stated) [3-methylheptan-3-ol]
54.00 °C | CCC(C)CC(O)CC (configuration not stated) [5-methylheptan-3-ol]
-73.00 °C | C/C=C\C [(z)-but-2-ene]
187.80 °C | OCc1ccc(CO)cc1 [[4-(hydroxymethyl)phenyl]methanol]
62.00 °C | C=CCOc1ccccc1 [allyloxybenzene]
22.22 °C | CCC(C)O (configuration not stated) [butan-2-ol]
-30.00 °C | C1=CCCCC1 [cyclohexene]
104.44 °C | CCCCCCCCCCO [decan-1-ol]
-46.00 °C | C=COCC [ethoxyethylene]
54.00 °C | CCCCCC(C)N (configuration not stated) [heptan-2-amine]
68.00 °C | C=CC(O)CCCCC (configuration not stated) [oct-1-en-3-ol]
90.56 °C | CCCCCCCCO [octan-1-ol]
79.00 °C | OCCCO [propane-1,3-diol]
145.00 °C | CCCCCCCCCCCCCCO [tetradecan-1-ol]
116.00 °C | CCCCCCCCCCCCCO [tridecan-1-ol]

SMILES | flash point
COc1ccccc1OC [1,2-dimethoxybenzene] | 72.00 °C
CCCCOCCOCCOCCCC [1-[2-(2-butoxyethoxy)ethoxy]butane] | 101.00 °C
CC(Cl)OC(C)Cl (configuration not stated) [1-chloro-1-(1-chloroethoxy)ethane] | 55.00 °C
ClCCOCCCl [1-chloro-2-(2-chloroethoxy)ethane] | 55.00 °C
Clc1ccc(Oc2ccccc2)cc1 [1-chloro-4-(phenoxy)benzene] | 113.00 °C
CC(O)CCl (configuration not stated) [1-chloropropan-2-ol] | 51.00 °C
OCCOCCO [2-(2-hydroxyethoxy)ethanol] | 138.33 °C and 143.00 °C
CCCCOCC1CO1 (configuration not stated) [2-(butoxymethyl)oxirane] | 41.00 °C
c1ccc(OCC2CO2)cc1 (configuration not stated) [2-(phenoxymethyl)oxirane] | 115.00 °C
OCCOCCOCCO [2-[2-(2-hydroxyethoxy)ethoxy]ethanol] | 162.78 °C
Nc1ccccc1Cl [2-chloroaniline] | 98.00 °C
CCN(CC)CCO [2-diethylaminoethanol] | 51.50 °C
OCc1ccco1 [2-furylmethanol] | 83.33 °C
CCC(C)(C)O [2-methylbutan-2-ol] | 20.00 °C
CC(C)(C)CCO [3,3-dimethylbutan-1-ol] | 29.00 °C
Nc1cccc(Cl)c1 [3-chloroaniline] | 118.00 °C
C=CC1CC=CCC1 (configuration not stated) [4-vinylcyclohexene] | 21.00 °C
CN(C)C=O [N,N-dimethylformamide] | 57.00 °C
CCNCC [N-ethylethanamine] | -28.00 °C
CC(O)CCO (configuration not stated) [butane-1,3-diol] | 108.89 °C
OCCCCO [butane-1,4-diol] | 121.11 °C
CCCCCCO [hexan-1-ol] | 73.89 °C
CCCCCCC(C)O (configuration not stated) [octan-2-ol] | 85.00 °C
CCCC(C)O (configuration not stated) [pentan-2-ol] | 40.56 °C
OCCCCCO [pentane-1,5-diol] | 129.44 °C

remark: another data set of the same source

SMILES | flash point [°C]
C1COCCO1 [1,4-dioxane] | 12.00
CCCCOCCOCCOCCCC [1-[2-(2-butoxyethoxy)ethoxy]butane] | 118.00
CCCCOCC1CO1 (configuration not stated) [2-(butoxymethyl)oxirane] | 54.00
CCC(CC)CO [2-ethylbutan-1-ol] | 53.00
CCC(C)(C)O [2-methylbutan-2-ol] | 19.00
CN(C)C=O [N,N-dimethylformamide] | 67.00
CCNCC [N-ethylethanamine] | -29.00
CCC(C)O (configuration not stated) [butan-2-ol] | 24.00
CCCCCCCCCCO [decan-1-ol] | 82.00
CCCCCCO [hexan-1-ol] | 63.00
CCCCCCCCO [octan-1-ol] | 81.00
CCCCCCC(C)O (configuration not stated) [octan-2-ol] | 76.00
CCCC(C)O (configuration not stated) [pentan-2-ol] | 35.00
CCCCCCCCCCCCCCO [tetradecan-1-ol] | 141.00
CCCCCCCCCCCCCO [tridecan-1-ol] | 121.00

remark: another data set of the same source

flash point [°C] | SMILES
14.00 | C[Si]1(C)CCCCO1 [1,1-Dimethyl-1-sila-2-oxacyclohexane]
34.00 | C=C[Si](C)(C)N[Si](C)(C)C=C [1,3-Divinyltetramethyldisilazane]
43.00 | C=C(CCl)C[Si](C)(C)C [2-Chloromethyl-3-trimethylsilyl-1-propene]
86.00 | C[Si](Cl)(Cl)CCCCl [3-Chloropropylmethyldichlorosilane]
16.00 | C[Si](C)(C)CBr [Bromomethyltrimethylsilane]
26.00 | CCO[Si](C)(C)CCl [Chloromethyldimethylethoxysilane]
60.00 | C[Si](Cl)(Cl)CCC#N [Cyanoethylmethyldichlorosilane]
43.00 | Cl[SiH](Cl)C1CCCC1 [Cyclopentyldichlorosilane]
77.00 | Cl[Si](Cl)(Cl)C1CCCC1 [Cyclopentyltrichlorosilane]
62.00 | C[Si](C)(C)O[Si](C)(C)O[Si](C)(C)O[Si](C)(C)C [Decamethyltetrasiloxane]
28.00 | C[Si](Cl)(Cl)C(Cl)Cl [Dichloromethylmethyldichlorosilane]
15.00 | CC[Si](C)(Cl)CC [Diethylmethylchlorosilane]
-20.00 | CC[SiH2]CC [Diethylsilane]
40.00 | C[SiH](C)c1c(F)c(F)c(F)c(F)c1F [Dimethyl(pentafluorophenyl) silane]
-28.00 | C[SiH](C)Cl [Dimethylchlorosilane]
11.00 | CCO[Si](C)(C)OCC [Dimethyldiethoxysilane]
8.00 | C=C[Si](C)(C)C=C [Divinyldimethylsilane]
-27.00 | CCO[Si](C)(C)C [Ethoxytrimethylsilane]
-10.00 | CC[Si](Cl)(Cl)Cl [Ethyltrichlorosilane]
27.00 | CC[Si](OC)(OC)OC [Ethyltrimethoxysilane]
27.00 | CN([Si](C)(C)C)[Si](C)(C)C [Heptamethyldisilazane]
133.00 | C[Si](C)(C)O[Si](C)(C)O[Si](C)(C)O[Si](C)(C)O[Si](C)(C)O[Si](C)(C)O[Si](C)(C)C [Hexadecamethylheptasiloxane]
20.00 | C[Si](C)(C)O[SiH2]O[Si](C)(C)C [Hexamethyltrisiloxane]
64.00 | CCCCCC[SiH](Cl)Cl [Hexyldichlorosilane]
12.00 | CCCCCC[SiH3] [Hexylsilane]

— a flash point compilation (Sun et al. 2020)
